Laboratory results reported in PMC5322882, “Alterations in cellular pharmacokinetics and pharmacodynamics of elvitegravir in response to ethanol exposure in HIV-1 infected monocytic (U1) cells” (PLoS ONE, 2017).

Columns and labels:
MRP1 = experiment: In-Cell Western analysis of MRP1 protein expression in U1 cells; assay type: cell-based; conditions: 24 hours; for change in MRP1 expression compared to control (in words): U1 cells; for MRP1 fluorescence signal intensity, mean (Fig 3B): relative response compared to vehicle controls, normalized to β-actin
Method: (§1) Detecting low levels of protein expression in native cells using traditional Western blotting can be difficult and therefore some studies successfully used In-Cell Western blotting (ICW) to quantify minor alterations in protein expression. We used manufacturer recommended (LI-COR Biosciences, NE) protocol in this study to perform ICW. U1 cells (0.03x10^6) were plated in sterile 96-well plates and differentiated with 100 nM PMA for 72 hours at 37°C in a humidified incubator while maintaining 5% CO2 air flow. On the day of treatment, each well was flushed with sterile PBS (250 μl) followed by addition of a 250 μl RPMI media containing various combinations of drugs previously mentioned. These plates were incubated for 24 hours prior to fixation. Medium from each well was removed by careful aspiration and cells were immediately fixed by addition of cold (-20°C) methanol (200 μl) followed by incubation of the plate at ambient temperature for 10 minutes with gentle shaking. Following incubation, methanol was carefully removed and wells were gently rinsed thrice with PBS (200 μl). After the last rinse, blocking was done by adding a 150 μl of Li-Cor blocking buffer and incubating the plate at room temperature with gentle shaking for 1.5 hours. Meanwhile, the primary antibodies were diluted in Li-Cor Odyssey blocking buffer using following dilutions: 3A4 (Rabbit Pab, Abcam # ab3572) 1: 200; MRP1 (mouse mab, Millipore # MAB4100) 1:50; MDR1(mouse mab, Millipore # MAB4334) 1:50; β-Actin (Mouse mAb Cell Signaling # 3700) 1:2000; β-Actin (Rabbit mAb Cell Signaling # 4970) 1:200. After blocking, 50 μl of desired antibody added to test wells and incubated overnight at 4°C with gentle shaking. On the following day, wells were washed five times with 200 μl PBS containing Tween-20 (0.1%) for 5 minutes at room temperature with gentle shaking. Secondary antibodies, goat anti-Mouse Mab (Li-Cor # 926–68170) and goat anti-Rabbit Mab (Li-Cor # 827–08365) were diluted in 1:1000 ratio in blocking buffer (0.2% -Tween-20, 0.01% SDS). After the final wash, wells were incubated with 50 μl of secondary antibody mixture for 1 hour in the dark at room temperature. After five washes, plates were scanned using Li-Cor Odyssey® SA and analyzed by using Image Studio V4.0 software (LI-COR Biosciences, NE). Background was subtracted from control wells and target protein signal intensities from triplicate wells were normalized to their respective β-actin intensities. Signal intensities were expressed as percent of relative responses (mean ± standard errors of mean) compared to vehicle controls.

HIV-1 replication = experiment: HIV p24 ELISA in culture medium of U1 cells (HIV replication); assay type: cell-based; conditions: 24 hours; for HIV p24 level in culture media, mean (Fig 2): percentage of vehicle control (100%), EVG 5 μM, COBI 2 μM, ethanol 20 mM; for effect on HIV p24 levels compared to control (in words): Fig 5; for HIV p24 level in culture media, mean (Fig 5): percentage of vehicle control, MK-571 50 μM, PSC-833 5 μM
Method: (§2) HIV-infected U937 cell line—the U1 cells were obtained through the NIH AIDS Reagent Program (Germantown, MD). U1 cells were cultured in Roswell Park Memorial Institute (RPMI) 1640 media (Corning Inc, Tewksbury, MA) supplemented with 10% fetal bovine serum (Atlanta biologicals, Atlanta, GA), 1% L-glutamine, nonessential amino acid solution, sodium bicarbonate, and penicillin-streptomycin solution. Cells were plated at 0.9x10^6 cells/well of 6-well plates and were differentiated into macrophages with 100 nM Phorbol 12-myristate 13-acetate (PMA) for 72 hours prior to treatment. On the day of experiment, medium was removed and cells were washed twice with PBS and treated with media containing clinically relevant concentrations of (a) EVG (5 μM), (b) EVG+COBI (2 μM), (c) EVG+ethanol (20 mM), (d) EVG+COBI+ethanol. Ethanol-treated plates were placed in an incubator that humidified with 20 mM ethanol to prevent any loss of ethanol due to evaporation.
(§3) At predetermined time points (0.5, 1, 3, 6, 12, and 24 hours), cells were collected for concentration-time profile experiments and medium was collected for HIV p24 measurement. At each time point, cells were washed twice with PBS and incubated with 400 μL of cold Radioimmunoprecipitation assay (RIPA) buffer for 10 minutes and the cell lysates were collected.
Influence of the combination of drugs on HIV replication was determined by measurement of HIV p24 levels in the cell culture medium. […] The concentration of p24 in the samples was quantitated by comparing with standards’ absorbance values and reported in percentage of control. The vehicle-treated samples were used as control and set as 100%.

[1] = Intracellular elvitegravir concentration-time profile (cellular pharmacokinetics) in U1 cells, LC-MS/MS; assay type: in vitro ADME; conditions: human, intracellular EVG in U1 cells
Method: as §2, §3
(§4) A previously reported LC-MS/MS method was used to quantitate EVG in cell lysates, culture medium, and plasma samples used in this study. Calibrants (0.003, 0.006, 0.013, 0.025, 0.05, 0.1, 0.15, 0.25, 0.5, and 1 μM) were prepared by serial dilution approach with the corresponding working solutions. EVG extraction from the calibrants and study samples was performed by adding 3-volumes of cold acetonitrile which contained a 138 nM ritonavir (RTV) as internal standard (IS). All samples were centrifuged at 8000 rpm for 10 minutes at 4°C and clear supernatants were transferred into vails with low-volume inserts for LC-MS/MS analysis. Samples (5 μL) were injected onto a Waters Xterra® MS C18 Column (125Å, 3.5 μ, 4.6 X 50 mm) (Waters Corporation, Milford, MA) attached to a Shimadzu Nexera HPLC system coupled with a tandem mass spectrometer (Triple Quad 5500 from AB SCIEX, Framingham, MA) with electron spray ionization in positive mode. Data was acquired and analyzed with the Analyst software package (ver.1.6.2, AB SCIEX, Framingham, MA). Concentrations were quantified by the Quantitative Analysis module (Analyst ver 1.6.2, AB SCIEX, Framingham, MA) from a standard curve fitted with a linear-regression model with a weighting factor of 1/x^2.
(§5) The concentration-time profiles were analyzed by non-compartmental modeling using Phoenix WinNonlin 6.4 (Certara L.P., Princeton, NJ). Area under the curve (AUCtot) was calculated by the log trapezoidal rule by log-linear regression. The maximum concentration achieved (Cmax) and the time to maximum concentration (Tmax) were determined from the concentration-time profiles. Effect of ethanol on EVG AUCtot and Cmax were compared using unpaired t test with Welch's correction. Tmax values were compared using Wilcoxon rank-sum test. All other data involving more than two groups were compared by one way ANOVA and multiple comparisons were performed by Tukey’s post hoc test. ANOVA data was presented along with multiplicity adjusted p values for each comparison. All the statistical analyses were done by Prism 6 (GraphPad Software, La Jolla, CA). A p-value ≤ 0.05 among treatment groups was considered significant.

U1 cells [2] = experiment: as above; assay type: in vitro ADME; conditions: for cellular EVG concentration, mean: U1 cells
Method: as §2, §3, §4, §5

MDR1 = experiment: In-Cell Western analysis of MDR1 protein expression in U1 cells; assay type: cell-based; conditions: 24 hours; for change in MDR1 expression compared to control (in words): U1 cells; for MDR1 fluorescence signal intensity, mean (Fig 3C): relative response compared to vehicle controls, normalized to β-actin
Method: as §1

CYP3A4 = experiment: In-Cell Western analysis of CYP3A4 protein expression in U1 cells; assay type: cell-based; conditions: 24 hours; for change in CYP3A4 expression compared to control (in words): U1 cells; for CYP3A4 fluorescence signal intensity, mean (Fig 3A): relative response compared to vehicle controls, normalized to β-actin
Method: as §1

U1 cells [3] = experiment: Intracellular elvitegravir concentration in the presence of MRP1 or MDR1 inhibitors and cobicistat + ethanol; assay type: in vitro ADME; conditions: cells co-treated with EVG+COBI+ethanol (control), 24 hours
Method: as §3

[4] = parameters: method as in PMID 10817729; conditions: ethanol 0.7 g/kg with 600 mg of abacavir, 25 male HIV-infected individuals; cited from earlier work

Compound	change in MRP1 expression compared to control (in words) (MRP1)	MRP1 fluorescence signal intensity, mean (Fig 3B) (MRP1)	HIV p24 level in culture media, mean (Fig 2) (HIV-1 replication)	change in MDR1 expression compared to control (in words) (MDR1)	MDR1 fluorescence signal intensity, mean (Fig 3C) (MDR1)	change in CYP3A4 expression compared to control (in words) (CYP3A4)	CYP3A4 fluorescence signal intensity, mean (Fig 3A) (CYP3A4)	effect on HIV p24 levels compared to control (in words) (HIV-1 replication; U1 cells)	HIV p24 level in culture media, mean (Fig 5) (HIV-1 replication)	further results
COc1cc2c(cc1Cc1cccc(Cl)c1F)c(=O)c(C(=O)O)cn2[C@H](CO)C(C)C [EVG, elvitegravir]	no effect	100%	70.3%	no influence	91.21%	no change	104.7%	–	–	reduction of HIV p24 levels (HIV-1 replication; U1 cells, compared to vehicle): 30%; Cmax at 5 μM ([1]; EVG 5 μM, COBI 2 μM, ethanol 20 mM, mean ± SEM): 82 ± 4 µM; Tmax at 5 μM ([1]; median (range)): 12 h; cellular EVG concentration, mean (U1 cells [2]; 0.5 hours): 41.39 μM/mg of protein; cellular EVG concentration, mean (U1 cells [2]; 1 hour): 51.13 μM/mg of protein; cellular EVG concentration, mean (U1 cells [2]; 3 hours): 59.00 μM/mg of protein; cellular EVG concentration, mean (U1 cells [2]; 6 hours): 66.27 μM/mg of protein; cellular EVG concentration, mean (U1 cells [2]; 12 hours): 78.01 μM/mg of protein; cellular EVG concentration, mean (U1 cells [2]; 24 hours): 72.02 μM/mg of protein; AUCtot (U1 cells [2]; intracellular EVG in PMA-differentiated U1 cells, 0 to 24 hours, EVG 5 μM, COBI 2 μM, ethanol 20 mM, mean ± SEM): 1733 ± 122 μMXh/mg; mean exposure (AUCtot) (U1 cells [2]; intracellular EVG in U1 cells): 1733 ± 122 µM·h/mg
CN(C)C(=O)CCSC(SCCC(=O)O)c1cccc(/C=C/c2ccc3ccc(Cl)cc3n2)c1 (centres unmarked) [MK-571]	–	–	–	–	–	–	–	did not show any effect	104.1%	–
C/C=C/C[C@@H](C)C(=O)[C@H]1C(=O)N[C@@H](C(C)C)C(=O)N(C)CC(=O)N(C)[C@@H](CC(C)C)C(=O)N[C@@H](C(C)C)C(=O)N(C)[C@@H](CC(C)C)C(=O)N[C@@H](C)C(=O)N[C@H](C)C(=O)N(C)[C@@H](CC(C)C)C(=O)N(C)[C@@H](CC(C)C)C(=O)N(C)[C@@H](C(C)C)C(=O)N1C [PSC-833]	–	–	–	–	–	–	–	did not show any effect	98.57%	effect on intracellular EVG concentration (in words) (U1 cells [3]): no significant effect
Nc1nc(NC2CC2)c2ncn([C@H]3C=C[C@@H](CO)C3)c2n1 [abacavir]	–	–	–	–	–	–	–	–	–	increase in half-life with ethanol consumption [4]: 26%; increase in maximum concentration with ethanol consumption [4]: 15%; increase in total exposure with ethanol consumption [4]: 41%
CCO [EtOH, ethanol]	upregulated	167.2%	135.4%	significant induction	128%	significant induction	167.5%	–	135.4%	increase in HIV p24 levels compared to vehicle control (HIV-1 replication; U1 cells): 35%
